These results are taken from PubChem BioAssay AID1645862 (Buhrlage Lab, Dana-Farber Cancer Institute and Novartis …, 2021).

pIC50: −log10 of the molar value. Active and inactive are the calls of the source. The rule behind the calls is not given here. Where only a bound is given, the exact number is not on record here.

The test concerns the target Ubiquitin carboxyl-terminal hydrolase 8 (Homo sapiens) (UniProt P40818). As to the kind of experiment: Ubiquitin-specific protease 8 inhibitors, concentration-effect, biochemical, validation of initial actives (AID 1645862).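 Note: potency reflects inhibition of USP8 cleavage of a ubiquitin rhodamine substrate.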 The note with it: recombinant USP8 deubiquitinase activity assay.

Sequence of Ubiquitin carboxyl-terminal hydrolase 8 (Homo sapiens) (P40818 whole entry, looked up): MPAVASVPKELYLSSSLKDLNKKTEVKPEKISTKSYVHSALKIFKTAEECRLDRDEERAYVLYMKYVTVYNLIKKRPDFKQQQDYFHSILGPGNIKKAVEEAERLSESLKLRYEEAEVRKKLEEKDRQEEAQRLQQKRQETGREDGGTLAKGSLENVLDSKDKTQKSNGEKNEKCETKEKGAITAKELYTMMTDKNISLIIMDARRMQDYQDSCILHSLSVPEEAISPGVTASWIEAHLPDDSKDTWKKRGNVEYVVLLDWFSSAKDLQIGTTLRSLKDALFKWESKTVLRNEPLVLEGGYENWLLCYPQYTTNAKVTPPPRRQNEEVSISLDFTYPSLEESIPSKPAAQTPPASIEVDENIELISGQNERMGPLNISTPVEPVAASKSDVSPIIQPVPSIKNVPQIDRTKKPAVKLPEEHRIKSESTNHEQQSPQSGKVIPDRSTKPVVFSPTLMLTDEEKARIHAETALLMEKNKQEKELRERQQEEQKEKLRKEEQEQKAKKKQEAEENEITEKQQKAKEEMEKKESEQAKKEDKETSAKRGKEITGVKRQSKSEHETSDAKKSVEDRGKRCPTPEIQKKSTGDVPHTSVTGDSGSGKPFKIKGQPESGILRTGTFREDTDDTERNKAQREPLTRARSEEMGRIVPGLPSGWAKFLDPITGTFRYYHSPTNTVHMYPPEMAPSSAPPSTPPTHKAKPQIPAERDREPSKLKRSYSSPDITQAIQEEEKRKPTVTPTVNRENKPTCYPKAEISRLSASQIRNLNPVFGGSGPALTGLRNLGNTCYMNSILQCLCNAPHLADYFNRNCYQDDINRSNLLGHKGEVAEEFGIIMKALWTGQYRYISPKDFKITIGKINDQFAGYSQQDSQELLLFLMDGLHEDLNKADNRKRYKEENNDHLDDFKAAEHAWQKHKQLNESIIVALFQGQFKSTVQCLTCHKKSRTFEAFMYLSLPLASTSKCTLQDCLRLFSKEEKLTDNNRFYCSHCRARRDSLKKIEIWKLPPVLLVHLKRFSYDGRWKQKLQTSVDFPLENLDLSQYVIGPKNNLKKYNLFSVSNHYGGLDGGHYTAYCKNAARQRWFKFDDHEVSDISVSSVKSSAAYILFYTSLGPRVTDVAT

Consider `Cc1cc(=O)n(C)c2c(O)c3c(cc12)c(C)cc(=O)n3C`, for which the negative-log IC50 (pIC50) was 6.59.

Regarding `COc1ccc(Cl)cc1NC(=O)Cn1c(=O)n(CCCCC(=O)NCCc2ccccc2)c(=O)c2ccccc21`, the IC50 is > 40 µM (inactive).

Regarding `O=C(c1ccccc1CN1CCOCC1)N1CCOCC2(C1)CN(c1ccc(F)cc1)C(=O)O2` (stereo not given), the IC50 was > 40 µM (inactive).

`COc1ccc(S(=O)(=O)N2CCc3ccccc32)cc1C(=O)Nc1ccc2c(c1)NC(=O)C(C)O2` (stereo not given): the IC50 is > 40 µM (inactive).

In the case of `Cc1ccc(-c2n[nH]n3c2nc(=O)c2ccc(C(=O)NC4CCCCC4)cc23)cc1`, the IC50 is > 40 µM (inactive).

Regarding `O=C(Cn1c(=O)c2ccccc2c2ccccc21)Nc1ccc2c(c1)OCO2`, the IC50 was > 40 µM (inactive).

For the compound `Fc1ccccc1-c1nnc(C2(c3ccc4c(c3)OCO4)CCOCC2)o1`, the IC50 was > 40 µM (inactive).

Consider `O=S1(=O)CCN(Cc2c(F)cccc2F)c2c(F)nc(N3CCOCC3)c(F)c21`, for which the IC50 was > 40 µM (inactive).

`O[C@H]1[C@H](NCc2cccc(C(F)(F)F)c2)[C@@H](c2cncnc2)C[C@H]1O`: the IC50 was > 40 µM (inactive).

As to `CCOc1ccc(-c2nnc(-c3cnc4onc(C5CCCC5)c4c3)o2)cc1`, the IC50 was > 40 µM (inactive).

Turning to `COc1ccc(-n2c(=O)c3ccc(C(=O)NCCc4ccccc4)cc3n(CC(=O)NCc3ccco3)c2=O)cc1`, the IC50 was > 40 µM (inactive).

Consider `COc1ccc(-c2nc(-c3cc4cc(OC)ccc4[nH]c3=O)no2)cc1`, for which the IC50 was > 40 µM (inactive).

For the compound `Cn1nc(C(=O)N2CCC(c3ccccc3)C2)c2c1-c1ccsc1CC2` (stereo not given), the negative-log IC50 (pIC50) is 4.42.

Regarding `O=C(COc1ccc(C2CCCCC2)cc1)Nc1ccc(-c2nn3cnnc3s2)cc1`, the IC50 was > 40 µM (inactive).

As for `O=C(CNC(=O)c1ccc2nc(-n3cccc3)sc2c1)NCc1ccccc1`, the IC50 is > 40 µM (inactive).

Consider `CC(C)Cc1nc2sc3c(SCC(=O)N4CCC(C)CC4)ncnc3c2c2c1COC(C)(C)C2`, for which the IC50 was > 40 µM (inactive).

As for `Cn1c(CCNC(=O)c2[nH]nc3c2CCc2ccccc2-3)nc2ccccc21`, the IC50 was > 40 µM (inactive).

As to `CSc1ccc(C(=O)Nc2nc(-c3ccncc3)cs2)cc1`, the IC50 is > 40 µM (inactive).

With `COc1cc(OC)cc(N2C(=O)N(CC(=O)c3ccc(Br)cc3)c3ccccc3S2(=O)=O)c1`, the IC50 is > 40 µM (inactive).

Regarding `Cc1cccc(NC(=O)Nc2nnc(CC(=O)NCc3ccccc3)s2)c1`, the IC50 is > 40 µM (inactive).

As for `CCC(C(=O)C(C)C(O)C(C)CCc1ccc(C)c(O)c1C(=O)O)C1OC(CC)(C2CCC(O)(CC)C(C)O2)CC1C` (stereo not given), the IC50 is > 40 µM (inactive).

`CCCc1nnc(NC(=O)c2cc(-c3ccccc3O)n[nH]2)s1`: the IC50 is > 40 µM (inactive).

For `CCOC(=O)c1ccc(NC(=O)Cn2c(=O)n(CC(=O)NCc3ccco3)c(=O)c3ccccc32)cc1`, the IC50 was > 40 µM (inactive).

With `O=C(O)C1C(C(=O)Nc2ccccc2)C2(c3ccccc3)C(=O)C1(c1ccccc1)C(c1ccccc1)=C2c1ccccc1` (stereo not given), the negative logarithm of the IC50 (pIC50) was 4.81.

On to `Cc1ncc(CO)c2c1Oc1nc(-c3cccc(Cl)c3)nc(SCC(=O)N3CCCCC3)c1C2`, for which the IC50 is > 40 µM (inactive).

As for `Cc1noc(C)c1COc1cccc(C(=O)Nc2cc(Cl)ccc2-n2cncn2)c1`, the IC50 was > 40 µM (inactive).

As to `Cc1ccc(CNC(=O)CCCn2c(=O)c3sccc3n(CC(=O)Nc3cc(Cl)ccc3C)c2=O)cc1`, the IC50 is > 40 µM (inactive).

Turning to `N#Cc1ccccc1NC(=O)c1cc2c(s1)-c1ccccc1S(=O)(=O)C2`, the IC50 was > 40 µM (inactive).

Consider `COC(=O)c1ccccc1NC(=O)Cn1c(=O)n(CCCC(=O)NCc2ccco2)c(=O)c2ccccc21`, for which the IC50 was > 40 µM (inactive).

On to `CCC(=O)Nc1nc2cc(NC(=O)Nc3cc(C)cc(C)c3)ccc2s1`, for which the IC50 was > 40 µM (inactive).

Regarding `O=C(Cn1cnc(-c2noc(-c3ccc(F)cc3)n2)c1)Nc1ccccc1F`, the IC50 is > 40 µM (inactive).

`COc1ccc(NC(=O)Cn2c(=O)n(CCC(=O)NCc3ccccc3)c(=O)c3sccc32)cc1Cl`: the IC50 is > 40 µM (inactive).

Turning to `CCn1cc2c(n1)c(=O)n(Cc1ccc(C)cc1)c(=O)n2CC(=O)Nc1ccc(F)cc1`, the IC50 is > 40 µM (inactive).

As for `CS(=O)(=O)c1cccc(-c2nnc(NC(=O)c3ccc(Cc4ccccc4)cc3)o2)c1`, the IC50 was > 40 µM (inactive).

For `N=C1/C(=C/c2cn(Cc3ccccc3)c3ccccc23)C(=O)N=C2SC(C(F)(F)F)=NN12`, the IC50 is > 40 µM (inactive).

On to `O=C(Nc1ccc(F)cc1)Nc1ccccc1OCc1cc(=O)n2ccccc2n1`, for which the IC50 was > 40 µM (inactive).

For the compound `COc1ccc(-c2cc3c(=O)n(CC(=O)Nc4ccccc4C)ccn3n2)cc1`, the IC50 is > 40 µM (inactive).

Regarding `COc1cccc(C(=O)Cn2c(=O)n(CCCC(=O)NCc3ccco3)c(=O)c3ccc(Cl)cc32)c1`, the IC50 was > 40 µM (inactive).

On to `N#Cc1ccccc1Cn1c(=O)n(CCCC(=O)NCc2ccc(F)cc2)c(=O)c2ccccc21`, for which the IC50 is > 40 µM (inactive).

For the compound `O=C(NC1CCCC1)C1CC(=O)N(c2cccc(-c3noc(-c4cccs4)n3)c2)C1` (stereo not given), the IC50 is > 40 µM (inactive).

Consider `COc1c(O)cc(CC(=O)O)c(C(C)=O)c1O`, for which the negative logarithm of the IC50 (pIC50) was 5.33.

For `O=C(CN1CC=C(c2ccccc2)CC1)Nc1ccc(S(=O)(=O)N2CCOCC2)cc1`, the IC50 was > 40 µM (inactive).

In the case of `Cc1ccc(NC(=O)Nc2ccc(C)n(CC(=O)Nc3cccc(C)c3)c2=O)cc1`, the IC50 is > 40 µM (inactive).

`O=C(COc1nc2ccccc2nc1N1CCOCC1)NC(c1ccccc1)c1ccccc1`: the IC50 was > 40 µM (inactive).

Consider `O=C(Nc1ccccc1C(=O)NC1CCSC1)c1ccc([N+](=O)[O-])cc1` (stereo not given), for which the IC50 was > 40 µM (inactive).

Consider `COc1cc2c(=O)n(CC3CCCO3)c(=O)n(CC(=O)c3ccc4c(c3)OCO4)c2cc1OC` (stereo not given), for which the IC50 is > 40 µM (inactive).

With `Cc1c(C(=O)Nc2ccc(Oc3ccccc3)cc2)nnn1-c1cccc(Cl)c1`, the IC50 was > 40 µM (inactive).

Take `COc1ccc(-c2cc3nc([C@H](C)NC(=O)Cc4cc(F)ccc4F)nn3cn2)cc1`: the IC50 is > 40 µM (inactive).

Turning to `COc1ccc(-c2nc(NCCCN3CCOCC3)c3ccccc3n2)cc1`, the IC50 was > 40 µM (inactive).

On to `Cc1nnc(NC(=O)C2CC(=O)N(CCc3ccc(F)cc3)C2)s1` (stereo not given), for which the IC50 was > 40 µM (inactive).

Regarding `Cc1c(C(=O)NCc2cccc(Br)c2)oc2c1-c1[nH]ncc1CC2`, the IC50 was > 40 µM (inactive).

`Cc1cccc(N2C(=O)/C(=C\c3ccc4c(c3)OCCO4)c3ccccc3C2=O)c1`: the IC50 was > 40 µM (inactive).

Consider `O=C(Nc1ccc2snnc2c1)Nc1ccc(F)cc1F`, for which the IC50 was > 40 µM (inactive).

For `CCn1c(CNC(=O)c2cccc(C)c2)nnc1SCC(=O)N1CCc2ccccc21`, the IC50 is > 40 µM (inactive).

With `CCc1ccc(NC(=O)Cc2nnc3cc(-c4nc(C)no4)ccn23)cc1`, the negative-log IC50 (pIC50) was 4.71.

Take `COc1ccc(CC(=O)Nc2c(NCc3ccccc3)c3ccccc3oc2=O)cc1`: the negative-log IC50 (pIC50) is 4.42.

For `C[C@@H]1OC2=C(C(=O)c3cccc(O)c3C2=O)[C@H](O)[C@@H]1O`, the negative logarithm of the IC50 (pIC50) was 6.08.

With `O=C(Nc1ccc(-c2cn3ccsc3n2)cc1)c1ccc(Cl)c([N+](=O)[O-])c1`, the negative logarithm of the IC50 (pIC50) was 4.67.

Take `COc1ccc(-c2cc3n(c(=N)c2C#N)CCc2cc4c(cc2-3)OCO4)cc1O`: the IC50 was > 40 µM (inactive).

For the compound `COc1ccc(NC(=O)Cn2c(=O)n(Cc3ccco3)c(=O)c3ccc(C(=O)NC4CCCC4)cc32)cc1`, the IC50 is > 40 µM (inactive).

As to `COc1ccc(C2/C(=C(\O)c3ccccc3)C(=O)C(=O)N2c2cccc(C(F)(F)F)c2)cc1` (stereo not given), the IC50 was > 40 µM (inactive).

With `O=C(Nc1ccc(-c2nc3ccccc3o2)cc1)c1ccc(S(=O)(=O)N2CCc3ccccc3C2)cc1`, the IC50 was > 40 µM (inactive).

Regarding `Cc1nc(N2CCCC2)ncc1-c1cc(=O)[nH]c(Nc2ccc(Cl)cc2Cl)n1`, the IC50 is > 40 µM (inactive).

Turning to `COc1ccc(OC)c(NC(=O)c2sc(-c3ccccc3)nc2C)c1`, the IC50 was > 40 µM (inactive).

`O=C(/C=C/c1c(F)cccc1Cl)N1CCc2ccccc2C1`: the pIC50 was 4.66.

On to `COc1ccc(NC(=O)CNC(=O)c2ccc3nc(-n4cccc4)sc3c2)cc1`, for which the IC50 is > 40 µM (inactive).

Take `CCC(=O)Nc1nc2cc(NC(=O)Nc3ccc(C)cc3)ccc2s1`: the IC50 was > 40 µM (inactive).

As to `Cc1ccc(NC(=O)Cc2sc(Nc3ccc(C)cc3)nc2O)cc1`, the IC50 is > 40 µM (inactive).

`O=C(NC1(O)C(=O)c2ccccc2C1=O)c1ccc(-c2csnn2)cc1`: the negative-log IC50 (pIC50) was 5.25.

Take `NC(=O)c1nc(-c2cccnc2)nc2c1[nH]c(=O)n2-c1ccc2c(c1)OCO2`: the IC50 is > 40 µM (inactive).

For the compound `CSc1ccccc1C(=O)Nc1sc2c(c1C(N)=O)CCC(C)C2` (stereo not given), the IC50 was > 40 µM (inactive).

Turning to `Cc1ccc(C(=O)O)cc1NC(=O)C(Sc1cccc(NC(=O)c2cccc(Cl)c2)c1)c1ccccc1` (stereo not given), the IC50 was > 40 µM (inactive).

As for `CCOc1ccc2c(c1)c(=O)c(C(=O)c1ccc(C)cc1)cn2CC(=O)Nc1ccc(OC)c(OC)c1`, the IC50 is > 40 µM (inactive).

Take `N#Cc1ccc(NC(=O)Nc2cccn(Cc3ccc(F)cc3)c2=O)cc1`: the IC50 was > 40 µM (inactive).

Turning to `O=C(CCCCn1c(=O)c2ccccc2n(CC(=O)Nc2ccc3c(c2)OCCO3)c1=O)NCc1ccco1`, the IC50 was > 40 µM (inactive).

Consider `O=S1(=O)CCN(CC2CCCO2)c2c(Oc3ccccc3)nc(F)c(Cl)c21` (stereo not given), for which the IC50 is > 40 µM (inactive).

On to `O=C(NCc1ccc(Cl)cc1)c1cc2c(s1)-c1ccccc1OC2`, for which the IC50 is > 40 µM (inactive).

Turning to `Cc1ccccc1NC(=O)CSC1=NC2(CCCCC2)Nc2ccccc21`, the IC50 is > 40 µM (inactive).

Take `O=C(Cn1c(=O)c2cccn2c2ccccc21)NCc1ccc(F)cc1`: the IC50 was > 40 µM (inactive).

For the compound `O=C(Cn1nc2c3c4c(sc3ncn2c1=O)CCCCC4)Nc1ccc(Cl)cc1F`, the pIC50 is 4.58.

A word on the pIC50: it is the IC50 on a negative log10 scale, so that one unit is a factor of ten. What is called IC50 is the concentration needed to halve the response being measured.
